Test system: 5-LO
Experiment: Test b): A23187-challenged heparinised human blood, LTB4 radioimmunoassay
Type: cell-based
Details: A23187 challenge
Method: b) An in vitro assay system involving incubating a test compound with heparinised human blood, prior to challenge with the calcium ionophore A23187 and then indirectly measuring the inhibitory effects on 5-LO by assaying the amount of LTB4 using the specific radioimmunoassay described by Carey and Forder (F. Carey and R. A. Forder, Brit. J. Pharmacol. 1985, 84, 34P) which involves the use of a protein-LTB4 conjugate produced using the procedure of Young et alia (Prostaglandins, 1983, 26(4), 605-613). The effects of a test compound on the enzyme cyclooxygenase (which is involved in the alternative metabolic pathway for arachidonic acid and gives rise to prostaglandins, thromboxanes and related metabolites) may be measured at the same time using the specific radioimmunoassay for thromboxane B2 (TxB2) described by Carey and Forder (see above). This test provides an indication of the effects of a test compound against 5-LO and also cyclooxygenase in the presence of blood cells and proteins. It permits the selectivity of the inhibitory effect on 5-LO or cyclooxygenase to be assessed.

Compound | IC50 [nM]
C=CCO[C@@]1(c2cc(F)cc(Sc3ccc4ccccc4c3)c2)CCC[C@@H]1OC (racemic) [(1RS,2SR)-1-allyloxy-1-[5-fluoro-3-(naphth-2-ylthio)phenyl]-2-methoxycyclopentane] | ~200
CO[C@H]1CCC[C@@]1(OC)c1cc(F)cc(Sc2ccc3ccccc3c2)c1 (racemic) [(1RS,2SR)-1-[5-fluoro-3-(naphth-2-ylthio)phenyl]-1,2-dimethoxycyclopentane] | ~200

Reference: patent publication US5214070A, “Diaryl ether cycloalkanes” (Imperial Chemical Industries PLC, priority 1989, dated 1993)
